Reference: patent publication US20240199649A1 (Biosplice Therapeutics, Inc., priority 2022, published 2024)
pIC50: −log10 of the molar value.

The compounds below were run against recombinant DYRK1A kinase (Homo sapiens (Human), UniProt Q13627) (assay: DYRK1A kinase assay (Ser/Thr 18 peptide Z-lyte FRET assay)). Settings: DYRK1A 0.25 μg/mL, ATP 15 μM, Ser/Thr peptide 18 4 μM; one hour at room temperature; 11-point dose-response, duplicate.
Format: biochemical
Procedure: Representative compounds were screened using the assay procedure for DYRK1A kinase activity as described below.
Each compound was dissolved in DMSO as a 10 mM stock and used to prepare compound source plates.
This is a non-radioactive assay using fluorescence resonance energy transfer (FRET) between coumarin and fluorescein to detect kinase activity which is represented as a ratio of coumarin emission/fluorescein emission.
The mixture was allowed to incubate with the representative compounds for one hour at room temperature. All reactions were performed in duplicate. Unphosphorylated (“0% Control”) and phosphorylated (“100% control”) forms of Ser/Thr 18 served as control reactions. Additionally, an 11-point dose-response curve of Staurosporine (1 uM top) was run to serve as a positive compound control.
After incubation, Development Reagent A was diluted in Development Buffer then added to the reaction and allowed to further incubate for one hour at room temperature.
Dose-response curves were generated, and inhibitory concentration (IC50) values were calculated using non-linear regression curve fit in the Dotmatics' Studies Software (Bishops Stortford, UK).

SMILES | pIC50
C[C@]1(O)CC[C@H](Nc2nc(N)c3c(-c4ccn5nccc5c4)ccn3n2)CC1 [Compound 1, trans-4-((4-Amino-5-(pyrazolo[1,5-a]pyridin-5-yl)pyrrolo[2,1-f][1,2,4]triazin-2-yl)amino)-1-methylcyclohexan-1-ol] | 6.76
CNc1nc(N[C@H]2CC[C@](C)(O)CC2)nn2ccc(-c3ccn4nccc4n3)c12 [Compound 20, trans-1-Methyl-4-((4-(methylamino)-5-(pyrazolo[1,5-a]pyrimidin-5-yl)pyrrolo[2,1-f][1,2,4]triazin-2-yl)amino)cyclohexan-1-ol] | 8.60
CNc1nc(N[C@@H]2CCN(C)CC2(F)F)nn2ccc(-c3ccn4nccc4n3)c12 [Compound 44, (R)—N^2-(3,3-Difluoro-1-methylpiperidin-4-yl)-N^4-methyl-5-(pyrazolo[1,5-a]pyrimidin-5-yl)pyrrolo[2,1-f][1,2,4]triazine-2,4-diamine] | 8.24
CNc1nc(N[C@H]2CC[C@](C)(O)CC2)nn2ccc(-c3ccc4nccn4c3)c12 [Compound 58, trans-4-((5-(Imidazo[1,2-a]pyridin-6-yl)-4-(methylamino)pyrrolo[2,1-f][1,2,4]triazin-2-yl)amino)-1-methylcyclohexan-1-ol] | 6.77
CNc1nc(NC2CCN(C3COC3)CC2)nn2ccc(-c3cnc4nc(C)n(C(C)C)c4c3)c12 [Compound 114] | 6.13
CNc1nc(N[C@H]2CC[C@](C)(O)CC2)nn2ccc(-c3ccc4nc(C)n(C(C)C)c4n3)c12 [Compound 132, trans-4-((5-(3-Isopropyl-2-methyl-3H-imidazo[4,5-b]pyridin-5-yl)-4-(methylamino)pyrrolo[2,1-f][1,2,4]triazin-2-yl)amino)-1-methylcyclohexan-1-ol] | 8.77
CNc1nc(N[C@H]2C[C@](C)(O)C2)nn2ccc(-c3cnc4nc(C)n(CC(F)F)c4c3)c12 [Compound 170, trans-3-((5-(1-(2,2-Difluoroethyl)-2-methyl-1H-imidazo[4,5-b]pyridin-6-yl)-4-(methylamino)pyrrolo[2,1-f][1,2,4]triazin-2-yl)amino)-1-methylcyclobutan-1-ol] | 8.32
CNc1nc(N[C@H]2CC[C@](C)(O)CC2)nn2ccc(-c3cnc4nc(C)n(CC(F)F)c4c3)c12 [Compound 171, trans-4-((5-(1-(2,2-Difluoroethyl)-2-methyl-1H-imidazo[4,5-b]pyridin-6-yl)-4-(methylamino)pyrrolo[2,1-f][1,2,4]triazin-2-yl)amino)-1-methylcyclohexan-1-ol] | 8.10
CNc1nc(N[C@H]2C[C@@H](OCCO)C2)nn2ccc(-c3ccc4nc(C)n(CC(F)F)c4n3)c12 [Compound 172, 2-(cis-3-((5-(3-(2,2-Difluoroethyl)-2-methyl-3H-imidazo[4,5-b]pyridin-5-yl)-4-(methylamino)pyrrolo[2,1-f][1,2,4]triazin-2-yl)amino)cyclobutoxy)ethan-1-ol] | 9.05
CNc1nc(N[C@H]2C[C@@](C)(O)C2)nn2ccc(-c3ccc4nc(C)n(CC(F)F)c4n3)c12 [Compound 174, Cis-3-((5-(3-(2,2-Difluoroethyl)-2-methyl-3H-imidazo[4,5-b]pyridin-5-yl)-4-(methylamino)pyrrolo[2,1-f][1,2,4]triazin-2-yl)amino)-1-methylcyclobutan-1-ol] | 8.77
CNc1nc(NC2CCC(F)(F)CC2)nn2ccc(-c3ccc4nc(C)n(CC(F)F)c4n3)c12 [Compound 182, N^2-(4,4-Difluorocyclohexyl)-5-(3-(2,2-difluoroethyl)-2-methyl-3H-imidazo[4,5-b]pyridin-5-yl)-N^4-methylpyrrolo[2,1-f][1,2,4]triazine-2,4-diamine] | 7.92
CNc1nc(N[C@H]2CC[C@@H](OC)CC2)nn2ccc(-c3ccc4nc(C)n(CC(F)F)c4n3)c12 [Compound 183, 5-(3-(2,2-Difluoroethyl)-2-methyl-3H-imidazo[4,5-b]pyridin-5-yl)-N^2-(cis-4-methoxycyclohexyl)-N^4-methylpyrrolo[2,1-f][1,2,4]triazine-2,4-diamine] | 8.39
CNc1nc(N[C@H]2CC[C@@H](OCCO)CC2)nn2ccc(-c3ccc4nc(C)n(CC(F)F)c4n3)c12 [Compound 184, 2-((cis-4-((5-(3-(2,2-Difluoroethyl)-2-methyl-3H-imidazo[4,5-b]pyridin-5-yl)-4-(methylamino)pyrrolo[2,1-f][1,2,4]triazin-2-yl)amino)cyclohexyl)oxy)ethan-1-ol] | 9.30
CNc1nc(N[C@H]2CC[C@@H](OCCOC)CC2)nn2ccc(-c3ccc4nc(C)n(CC(F)F)c4n3)c12 [Compound 185, 5-(3-(2,2-Difluoroethyl)-2-methyl-3H-imidazo[4,5-b]pyridin-5-yl)-N^2-(cis-4-(2-methoxyethoxy)cyclohexyl)-N^4-methylpyrrolo[2,1-f][1,2,4]triazine-2,4-diamine] | 8.62
CNc1nc(N[C@H]2CC[C@@H](NC(C)=O)CC2)nn2ccc(-c3ccc4nc(C)n(CC(F)F)c4n3)c12 [Compound 186, N-(cis-4-((5-(3-(2,2-difluoroethyl)-2-methyl-3H-imidazo[4,5-b]pyridin-5-yl)-4-(methylamino)pyrrolo[2,1-f][1,2,4]triazin-2-yl)amino)cyclohexyl)acetamide] | 8.82
CNc1nc(NC2CCN(CC(F)F)CC2)nn2ccc(-c3ccc4nc(C)n(CC(F)F)c4n3)c12 [Compound 201, 5-(3-(2,2-Difluoroethyl)-2-methyl-3H-imidazo[4,5-b]pyridin-5-yl)-N^2-(1-(2,2-difluoroethyl)piperidin-4-yl)-N^4-methylpyrrolo[2,1-f][1,2,4]triazine-2,4-diamine] | 9.15

Other lines, results leading:

pIC50 | SMILES
8.96 | CNc1nc(N[C@H]2CC[C@H](NC(C)=O)CC2)nn2ccc(-c3ccc4nc(C)n(CC(F)F)c4n3)c12 [Compound 187, N-(trans-4-((5-(3-(2,2-Difluoroethyl)-2-methyl-3H-imidazo[4,5-b]pyridin-5-yl)-4-(methylamino)pyrrolo[2,1-f][1,2,4]triazin-2-yl)amino)cyclohexyl)acetamide]
8.66 | CNc1nc(N[C@H]2CC[C@@](C)(O)CC2)nn2ccc(-c3ccc4nc(C)n(CC(F)F)c4n3)c12 [Compound 188, Cis-4-((5-(3-(2,2-Difluoroethyl)-2-methyl-3H-imidazo[4,5-b]pyridin-5-yl)-4-(methylamino)pyrrolo[2,1-f][1,2,4]triazin-2-yl)amino)-1-methylcyclohexan-1-ol]
8.89 | CNc1nc(N[C@H]2CC[C@](C)(O)CC2)nn2ccc(-c3ccc4nc(C)n(CC(F)F)c4n3)c12 [Compound 189, trans-4-((5-(3-(2,2-Difluoroethyl)-2-methyl-3H-imidazo[4,5-b]pyridin-5-yl)-4-(methylamino)pyrrolo[2,1-f][1,2,4]triazin-2-yl)amino)-1-methylcyclohexan-1-ol]
6.23 | CNc1nc(NC23CC4CC(CC(C4)C2)C3)nn2ccc(-c3ccc4nc(C)n(CC(F)F)c4n3)c12 [Compound 196, N^2-(Adamantan-1-yl)-5-(3-(2,2-difluoroethyl)-2-methyl-3H-imidazo[4,5-b]pyridin-5-yl)-N^4-methylpyrrolo[2,1-f][1,2,4]triazine-2,4-diamine]
8.70 | CNc1nc(N[C@H]2CN(C)C[C@H]2F)nn2ccc(-c3ccc4nc(C)n(CC(F)F)c4n3)c12 [Compound 197, 5-(3-(2,2-Difluoroethyl)-2-methyl-3H-imidazo[4,5-b]pyridin-5-yl)-N^2-((3S,4R)-4-fluoro-1-methylpyrrolidin-3-yl)-N^4-methylpyrrolo[2,1-f][1,2,4]triazine-2,4-diamine]
9.22 | CNc1nc(N[C@@H]2CN(C)C[C@@H]2F)nn2ccc(-c3ccc4nc(C)n(CC(F)F)c4n3)c12 [Compound 198, 5-(3-(2,2-Difluoroethyl)-2-methyl-3H-imidazo[4,5-b]pyridin-5-yl)-N^2-((3R,4S)-4-fluoro-1-methylpyrrolidin-3-yl)-N^4-methylpyrrolo[2,1-f][1,2,4]triazine-2,4-diamine]
8.62 | CNc1nc(N[C@H]2CN(C3COC3)C[C@H]2F)nn2ccc(-c3ccc4nc(C)n(CC(F)F)c4n3)c12 [Compound 199, 5-(3-(2,2-Difluoroethyl)-2-methyl-3H-imidazo[4,5-b]pyridin-5-yl)-N^2-((3S,4R)-4-fluoro-1-(oxetan-3-yl)pyrrolidin-3-yl)-N^4-methylpyrrolo[2,1-f][1,2,4]triazine-2,4-diamine]
8.89 | CNc1nc(N[C@@H]2CN(C3COC3)C[C@@H]2F)nn2ccc(-c3ccc4nc(C)n(CC(F)F)c4n3)c12 [Compound 200, 5-(3-(2,2-Difluoroethyl)-2-methyl-3H-imidazo[4,5-b]pyridin-5-yl)-N^2-((3R,4S)-4-fluoro-1-(oxetan-3-yl)pyrrolidin-3-yl)-N^4-methylpyrrolo[2,1-f][1,2,4]triazine-2,4-diamine]
8.74 | CNc1nc(NC2CCN(C(C)=O)CC2)nn2ccc(-c3ccc4nc(C)n(CC(F)F)c4n3)c12 [Compound 202, 1-(4-((5-(3-(2,2-Difluoroethyl)-2-methyl-3H-imidazo[4,5-b]pyridin-5-yl)-4-(methylamino)pyrrolo[2,1-f][1,2,4]triazin-2-yl)amino)piperidin-1-yl)ethan-1-one]
8.70 | CNc1nc(NC2CCN(C3COC3)CC2)nn2ccc(-c3ccc4nc(C)n(CC(F)F)c4n3)c12 [Compound 203, 5-(3-(2,2-Difluoroethyl)-2-methyl-3H-imidazo[4,5-b]pyridin-5-yl)-N^4-methyl-N^2-(1-(oxetan-3-yl)piperidin-4-yl)pyrrolo[2,1-f][1,2,4]triazine-2,4-diamine]
